Patent US4965266A, “Heteroarylcarboxamide derivatives, process for preparing the same and pharmaceutical composition containing the same” (Dainippon Pharmaceutical Co., Ltd., priority 1987, dated 1990)
Structures can show the parent of a compound that is named as a salt.

Experiments:
5-lipoxygenase = biological target: T1, 5-lipoxygenase (Cavia porcellus, UniProt A0A286X958); experiment: Inhibitory effect on 5-lipoxygenase activity (antiallergic activity in vitro); assay type: biochemical, guinea pig (male Hartley); details: for inhibition at 10 µM: 10^-5 M test compound, guinea pig peritoneal exudate cell cytosol, mean of 3 to 6 experiments
T1 construct: A cytosol fraction of peritoneal exudate cell from male Hartley guinea pig (weighing 400 to 700 g) was used as 5-lipoxygenase; endogenous in cells; host or cells: cytosol fraction of peritoneal exudate cells from male Hartley guinea pig
T1 sequence (A0A286X958 1-674): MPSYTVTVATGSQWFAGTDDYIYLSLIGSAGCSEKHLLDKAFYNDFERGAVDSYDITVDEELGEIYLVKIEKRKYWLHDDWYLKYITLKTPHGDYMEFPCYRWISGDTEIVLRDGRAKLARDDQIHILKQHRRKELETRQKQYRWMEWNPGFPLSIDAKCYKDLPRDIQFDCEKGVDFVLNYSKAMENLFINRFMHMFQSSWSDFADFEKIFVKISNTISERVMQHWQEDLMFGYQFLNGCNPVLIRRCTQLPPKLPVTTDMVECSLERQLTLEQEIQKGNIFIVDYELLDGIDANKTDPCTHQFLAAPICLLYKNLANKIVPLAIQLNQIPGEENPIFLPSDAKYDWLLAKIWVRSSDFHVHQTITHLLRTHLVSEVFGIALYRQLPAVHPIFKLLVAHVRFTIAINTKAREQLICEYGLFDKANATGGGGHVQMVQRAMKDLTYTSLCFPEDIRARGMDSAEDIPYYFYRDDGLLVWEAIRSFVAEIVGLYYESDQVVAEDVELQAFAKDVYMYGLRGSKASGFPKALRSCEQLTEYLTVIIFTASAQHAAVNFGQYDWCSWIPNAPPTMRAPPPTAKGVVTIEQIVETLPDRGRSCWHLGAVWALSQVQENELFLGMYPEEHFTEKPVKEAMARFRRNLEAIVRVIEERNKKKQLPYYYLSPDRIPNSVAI
Description: This experiment was carried out by the method of Miyamoto and Obata ["Perspectives in Prostaglandin Research", ed. by Y. Shiokawa et al., Excerpta Medica, Amsterdam-Oxford-Princeton, 1983, p.78] with minor modifications.
A cytosol fraction of peritoneal exudate cell from male Hartley guinea pig (weighing 400 to 700 g) was used as 5-lipoxygenase. As a standard reaction solution, a mixture of 50 mM potassium phosphate buffer (pH 7.4), 1 mM calcium chloride, 1 mM glutathione, 1 mM adenosine triphosphate, 10 μM indomethacin and the enzyme was used. To the reaction solution was added 0.02 μCi of [1-^14 C] arachidonic acid and the mixture was incubated at 30° C. for 5 minutes, followed by adding 0.6 ml of a cold solution comprising diethyl ether methanol -0.2 M citric acid (30 : 4 : 1) to terminate the reaction. The organic layer (300 μ1) was subjected to a thin layer chromatography plate on silica gel 60 F254 (E. Merck, West Germany) and, after developing, a radioactivity was measured by means of radiochromatogram scanner (Packard, U.S.A.) 5-Lipoxygenase activity was calculated by the following equation. [formula]
The results are shown in Table 1 in terms of mean value of 3 to 6 experiments.

[1] = system: passive cutaneous anaphylaxis (PCA); experiment: Inhibitory effect on passive cutaneous anaphylaxis (PCA) (antiallergic activity in vivo); parameters: species or system rat (male Wistar); details: 20 mg/kg oral, 1 hour prior to dye injection; rats; vs control group
Description: Male Wistar rats (weighing 130 to 190 g) were injected with a dilute solution (0.1 ml) of mouse antiserum to egg albumin, which was prepared by the method of Levine et al. [Int. Arch. Allergy Appl. […] Forty-eight hours later, 0.5% Evan's blue solution (1 ml) containing 2 mg of egg albumin was intravenously injected to tail vein of the animal. Thirty minutes after the dye injection, abdominal skin was peeled off and the area of the blueing lesions was measured. In each rat, a mean value of the two lesions was regarded as the response of the rat. The test compounds in a dose of 20 mg/kg, dissolved or suspended in a 0.5% aqueous tragacanth solution, were orally administered 1 hour prior to the dye injection.

ddY mice = experiment: Acute toxicity; assay type: in vivo; details: 1000 mg/kg oral; male ddY mice, 7 days observation
Source text: Five male ddY mice weighing 25 to 29 g were used in each group.

| SMILES | inhibition at 10 µM (5-lipoxygenase) [%] | further results |
| --- | --- | --- |
| CN1CCC(=C2c3ccccc3CC(=O)c3sccc32)CC1 [Ketotifen fumarate, reference compound] | – | 5-lipoxygenase inhibitory activity (in words) (5-lipoxygenase; ketotifen fumarate at 10^-4 M): did not show any significant inhibitory activity; PCA inhibition (%) [1]: 54.7% |
| Cc1ccc2c(O)c(C(=O)NCCCCN3CCC(=C(c4ccccc4)c4ccccc4)CC3)cnc2n1 [Example 1, N-[4-(4-diphenylmethylene-1-piperidyl)butyl]-4-hydroxy-7-methyl-1,8-naphthyridine-3-carboxamide.cndot.1/4 hydrate] | 96.8 | PCA inhibition (%) [1]: 88.3%; death of the animals (ddY mice): no death was observed |
| CCCCOc1cccc2c(O)c(C(=O)NCCCCN3CCN(C(c4ccccc4)c4ccccc4)CC3)cnc12 [Example 20] | 94.8 | – |
| CC(C)c1ccc(C(=O)NCCCCN2CCN(C(c3ccccc3)c3ccccc3)CC2)c(O)n1 [Example 6, N-[4-(4-diphenylmethyl-1-piperazinyl)butyl]-2-hydroxy-6-isopropylpyridine-3carboxamide] | 75.1 | PCA inhibition (%) [1]: 93.0%; death of the animals (ddY mice): no death was observed |
| COc1c(C(=O)NCCCCN2CCN(C(c3ccccc3)c3ccccc3)CC2)cnc2ccccc12 [Example 5, N-[4-(4-diphenylmethyl-1-piperazinyl)butyl]-4-methoxyquinoline-3-carboxamide.cndot.1/4 hydrate] | 80.3 | – |
| Cc1ccc2c(S)c(C(=O)NCCCCN3CCN(C(c4ccccc4)c4ccccc4)CC3)cnc2n1 [Example 9, N-[4-(4-diphenylmethyl-1-piperazinyl)butyl]-4-mercapto-7-methyl-1,8-naphthyridine-3-carboxamide.cndot.fumarate.cndot.1/2 hydratet] | 88.3 | – |
| Cc1ccc(C(=O)NCCCCN2CCN(C(c3ccccc3)c3ccccc3)CC2)c(O)n1 [Example 10, N-[4-(4-diphenylmethyl-1-piperazinyl)butyl]-2-hydroxy-6-methylpyridine-3-carboxamide] | – | PCA inhibition (%) [1]: 84.8% |
| N#Cc1cccc2ncc(C(=O)NCCCCN3CCN(C(c4ccccc4)c4ccccc4)CC3)c(O)c12 [Example 7 (5cyano compound), N-[4-(4-diphenylmethyl-1-piperazinyl)butyl]-5-cyano-4-hydroxyquinoline-3-carboxamide] | 92.1 | – |
| COc1cccc2c(O)c(C(=O)NCCCCN3CCN(C(c4ccccc4)c4ccccc4)CC3)cnc12 [Example 3, N-[4-(4-diphenylmethyl-1-piperazinyl)butyl]-4-hydroxy-8-methoxyquinoline-3-carboxamide] | 91.3 | PCA inhibition (%) [1]: 56.0%; death of the animals (ddY mice): no death was observed |
| COc1cccc2c(O)c(C(=O)NCCCCN3CCC(=C(c4ccccc4)c4ccccc4)CC3)cnc12 [Example 8, N-[4-(4-diphenylmethylene-1piperidyl)butyl]-4-hydroxy-8-methoxyquinoline-3-carboxamide.cndot.fumarate] | 93.3 | – |

More lines, main results first:

| inhibition at 10 µM (5-lipoxygenase) [%] | SMILES | further results |
| --- | --- | --- |
| 93 | Cc1ccc2c(O)c(C(=O)NCCCCN3CCN(C(c4ccccc4)c4ccccc4)CC3)cnc2c1 [Example 15] | – |
| 67.9 | N#Cc1ccc2ncc(C(=O)NCCCCN3CCN(C(c4ccccc4)c4ccccc4)CC3)c(O)c2c1 [Example 21] | – |
| 84.7 | N#Cc1ccc2c(O)c(C(=O)NCCCCN3CCN(C(c4ccccc4)c4ccccc4)CC3)cnc2c1 [Example 7 (7cyano compound), N-[4-(4-diphenylmethyl-1-piperazinyl)butyl]-7-cyano-4-hydroxyquinoline-3-carboxamide] | – |
| 95.4 | O=C(NCCCCN1CCN(C(c2ccccc2)c2ccccc2)CC1)c1cnc2cccc(O)c2c1O [Example 4, N-[4-(4-diphenylmethyl-1-piperazinyl)butyl]-4,5-dihydroxyquinoline-3-carboxamide] | – |
| 83.7 | O=C(NCCCCN1CCN(C(c2ccccc2)c2ccccc2)CC1)c1cnc2ccccc2c1O [Example 12] | – |
| 79.6 | Cc1ccc2c(O)c(C(=O)NCCCCN3CCN(C(c4ccccc4)c4ccccc4)CC3)cnc2n1 [Example 2, N-[4-(4-diphenylmethyl-1-piperazinyl)butyl]-4-hydroxy-7-methyl-1,8-naphthyridine-3-carboxamide.cndot.1/2 hydrate] | PCA inhibition (%) [1]: 80.7% |
| 95.3 | CC(C)c1ccc2ncc(C(=O)NCCCCN3CCN(C(c4ccccc4)c4ccccc4)CC3)c(O)c2c1 [Example 17] | – |
| 93.7 | Cc1ccc2ncc(C(=O)NCCCCN3CCN(C(c4ccccc4)c4ccccc4)CC3)c(O)c2c1 [Example 14] | – |
| 93.2 | COc1ccc2ncc(C(=O)NCCCCN3CCN(C(c4ccccc4)c4ccccc4)CC3)c(O)c2c1 [Example 18] | – |
| 92.8 | COc1ccc2c(O)c(C(=O)NCCCCN3CCN(C(c4ccccc4)c4ccccc4)CC3)cnc2c1 [Example 19] | – |
| 90.6 | Cc1cccc2c(O)c(C(=O)NCCCCN3CCN(C(c4ccccc4)c4ccccc4)CC3)cnc12 [Example 16] | – |
